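Where inhibition never reached the appropriate level, the endpoint shown equals the highest concentration tested. Otherwise, values were interpolated linearly from a five-concentration, 48-hour dose response in 96-well plates. Abbreviation: GI50, concentration required for 50% inhibition of growth. TGI is the concentration that stops growth completely.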
Columns and labels:
Experiment in all cases: inhibition of tumour cell growth, NCI panel, 48 h
BT-549 breast = test system: BT-549 breast
HCC-2998 colon = test system: HCC-2998 colon
HCT-116 colon = test system: HCT-116 colon
HL-60(TB) leukemia = test system: HL-60(TB) leukemia
M14 melanoma = test system: M14 melanoma
NCI-H522 lung = test system: NCI-H522 lung
NCI/ADR-RES ovarian = test system: NCI/ADR-RES ovarian
OVCAR-5 ovarian = test system: OVCAR-5 ovarian
OVCAR-8 ovarian = test system: OVCAR-8 ovarian
TK-10 renal = test system: TK-10 renal

SMILES: CCOC(=O)c1sc2nc(SC)nc(Nc3ccc4c(c3)OCCO4)c2c1N
- TGI (BT-549 breast): 32 µM
- TGI (HCC-2998 colon): > 100 µM
- TGI (HCT-116 colon): 42.1 µM
- TGI (HL-60(TB) leukemia): > 100 µM
- TGI (M14 melanoma): 31.7 µM
- TGI (NCI-H522 lung): 23.8 µM
- TGI (NCI/ADR-RES ovarian): 44.7 µM
- TGI (OVCAR-5 ovarian): 54.7 µM
- TGI (OVCAR-8 ovarian): 23.1 µM
- TGI (TK-10 renal): 30.3 µM

SMILES: COc1ccc2c(c1)c(-c1nc(-c3c[nH]c4ncccc34)cs1)cn2CCCCN1CCCCC1
- GI50 (BT-549 breast): 1.66 µM
- TGI (BT-549 breast): 3.13 µM
- GI50 (HCC-2998 colon): 1.74 µM
- TGI (HCC-2998 colon): 3.29 µM
- GI50 (HL-60(TB) leukemia): 1.72 µM
- TGI (HL-60(TB) leukemia): 3.54 µM
- GI50 (TK-10 renal): 1.51 µM
- TGI (TK-10 renal): 2.93 µM

SMILES: Nc1nc(SCc2ccccc2Cl)c2[nH]cnc2n1
- TGI (HCC-2998 colon): > 100 µM
- TGI (HCT-116 colon): > 100 µM
- TGI (HL-60(TB) leukemia): > 100 µM
- TGI (M14 melanoma): > 100 µM
- TGI (NCI-H522 lung): > 100 µM
- TGI (OVCAR-5 ovarian): > 100 µM
- TGI (OVCAR-8 ovarian): > 100 µM
- TGI (TK-10 renal): 67 µM

SMILES: CNC(C)C(O)c1ccc2oc3cc(=O)c4ccccc4c-3nc2c1 (stereo not drawn)
- TGI (BT-549 breast): > 100 µM
- TGI (HCC-2998 colon): > 100 µM
- TGI (HCT-116 colon): 21.8 µM
- TGI (HL-60(TB) leukemia): > 100 µM
- TGI (M14 melanoma): 16.1 µM
- TGI (NCI-H522 lung): 33.7 µM
- TGI (NCI/ADR-RES ovarian): > 100 µM
- TGI (OVCAR-5 ovarian): > 100 µM
- TGI (OVCAR-8 ovarian): > 100 µM
- TGI (TK-10 renal): > 100 µM

SMILES: COc1ccc(C2COc3c(ccc(O)c3C)C2)cc1OC (stereo not drawn)
- TGI (HCC-2998 colon): 121 µM
- TGI (HCT-116 colon): 153 µM
- TGI (HL-60(TB) leukemia): 140 µM
- TGI (NCI-H522 lung): 142 µM
- TGI (NCI/ADR-RES ovarian): > 200 µM
- TGI (OVCAR-5 ovarian): > 162 µM
- TGI (OVCAR-8 ovarian): > 200 µM

SMILES: CCCn1cnc2c(SCc3ccc(Cl)cc3)nc(N)nc21
- TGI (BT-549 breast): > 100 µM
- TGI (HCC-2998 colon): 52.5 µM
- TGI (HCT-116 colon): 44.2 µM
- TGI (HL-60(TB) leukemia): 48.7 µM
- TGI (M14 melanoma): 81.5 µM
- TGI (NCI-H522 lung): 36.9 µM
- TGI (NCI/ADR-RES ovarian): 73.2 µM
- TGI (OVCAR-5 ovarian): > 100 µM
- TGI (OVCAR-8 ovarian): > 100 µM
- TGI (TK-10 renal): 55.1 µM

SMILES: C=CCCC1(C)CCCNC1=S (stereo not drawn)
- TGI (HCC-2998 colon): > 100 µM
- TGI (HCT-116 colon): > 100 µM
- TGI (HL-60(TB) leukemia): > 100 µM
- TGI (M14 melanoma): > 100 µM
- TGI (OVCAR-5 ovarian): > 100 µM
- TGI (OVCAR-8 ovarian): > 100 µM
- TGI (TK-10 renal): > 100 µM

SMILES: CN(C)CCNC(=O)c1cccc2[nH]c(-c3ccccn3)nc12
- TGI (HCC-2998 colon): > 100 µM
- TGI (HCT-116 colon): > 65.2 µM
- TGI (HL-60(TB) leukemia): > 78.7 µM
- TGI (NCI-H522 lung): > 63.8 µM
- TGI (NCI/ADR-RES ovarian): > 87.7 µM
- TGI (OVCAR-5 ovarian): > 100 µM
- TGI (OVCAR-8 ovarian): > 100 µM

SMILES: Cc1nc2ccc(S(=O)(=O)Nc3nccs3)cc2c(=O)n1NS(=O)(=O)c1nccs1
- TGI (BT-549 breast): > 100 µM
- TGI (HCC-2998 colon): > 100 µM
- TGI (HL-60(TB) leukemia): > 100 µM
- TGI (M14 melanoma): > 100 µM
- TGI (NCI-H522 lung): > 100 µM
- TGI (NCI/ADR-RES ovarian): > 100 µM
- TGI (OVCAR-5 ovarian): > 100 µM
- TGI (OVCAR-8 ovarian): > 100 µM
- TGI (TK-10 renal): > 100 µM

SMILES: COc1ccc(/C=N/n2cnc3c(c2=O)SC(=C(C#N)C#N)N3c2ccccc2)cc1
- TGI (HCC-2998 colon): > 100 µM
- TGI (HCT-116 colon): > 100 µM
- TGI (HL-60(TB) leukemia): > 100 µM
- TGI (NCI-H522 lung): > 100 µM
- TGI (OVCAR-5 ovarian): > 100 µM
- TGI (OVCAR-8 ovarian): > 100 µM
- TGI (TK-10 renal): > 100 µM

SMILES: O=C(N[C@@H](Cc1coc2ccccc12)B(O)O)[C@@H]1C[C@H]2CC[C@@H]1O2
- GI50 (BT-549 breast): 3.07 µM
- TGI (BT-549 breast): 42.2 µM
- GI50 (HCC-2998 colon): 5.11 µM
- TGI (HCC-2998 colon): 21.1 µM
- GI50 (HCT-116 colon): 3.25 µM
- TGI (HCT-116 colon): 27.1 µM
- GI50 (HL-60(TB) leukemia): 3.05 µM
- TGI (HL-60(TB) leukemia): > 100 µM
- GI50 (M14 melanoma): 3.01 µM
- TGI (M14 melanoma): 82.7 µM
- GI50 (NCI-H522 lung): 5.04 µM
- TGI (NCI-H522 lung): 81.6 µM
- GI50 (NCI/ADR-RES ovarian): 48 µM
- TGI (NCI/ADR-RES ovarian): > 100 µM
- GI50 (OVCAR-5 ovarian): 6.8 µM
- TGI (OVCAR-5 ovarian): > 100 µM
- GI50 (OVCAR-8 ovarian): 80.8 µM
- TGI (OVCAR-8 ovarian): > 100 µM
- GI50 (TK-10 renal): 2.44 µM
- TGI (TK-10 renal): 11.5 µM

Reference: PubChem BioAssay (NCI)
